ChEMBL document CHEMBL1129658, “Syntheses and conformational analyses of glutamate analogs: 2-(2-carboxy-3-substituted-cyclopropyl)glycines as useful probes for excitatory amino acid receptors” (J Med Chem, 1996)

Tests used:
[1] = pKa value by 1H NMR titration experiments; pK3; type: physicochemical
[2] = pKa value by 1H NMR titration experiments; pK2; type: physicochemical
[3] = species on record: Rattus norvegicus; test: Depolarizing potency in new born rat spinal cord; type: functional
[4] = pKa value by 1H NMR titration experiments; pK1; type: physicochemical
[5] = species on record: Rattus norvegicus; test: Compound was tested for the inhibition of spinal reflex evoked by electrical stimulation of the dorsal root of new born rat
[6] = Compound was tested for the Inhibition of forskolin-stimulated cAMP formation in the cultured spinal neurons; details: Rattus norvegicus

In the case of C=C(C)[C@H]1CN[C@H](C(=O)O)[C@H]1CC(=O)O [KAINIC ACID], the pKa [1] is reported as 10.1, the pKa [2] is reported as 4.3 and the Relative potency [3] is reported as 100. It also gave a pKa [4] of 2.1.
Compound N[C@H](C(=O)O)[C@H]1C[C@@H]1C(=O)O has a pKa [1] of 9.7, an IC50 [5] of 700 nM and a pKa [2] of 4.2. It also gave a Relative potency [3] of 6, an IC50 [6] of 100 nM and a pKa [4] of 1.9.
N[C@H](C(=O)O)[C@@H]1C[C@H]1C(=O)O showed a pKa [1] of 9.5, a pKa [2] of 4.2 and a pKa [4] of 2.2.
With COC[C@H]1[C@H](C(=O)O)[C@H]1[C@H](N)C(=O)O the pKa [1] was 10.2, the pKa [2] was 4.2 and the Relative potency [3] was 0.1. It also gave a pKa [4] of 2.3.
With COC[C@@H]1[C@H](C(=O)O)[C@@H]1[C@H](N)C(=O)O the pKa [1] was 10.1, the pKa [2] was 5.1 and the Relative potency [3] was 25. The pKa [4] was 2.
Compound Cc1onc(O)c1CC(N)C(=O)O [(R,S)-AMPA] has a pKa [1] of 10.1, a pKa [2] of 5.2 and a pKa [4] of 2.1.
N[C@H](C(=O)O)[C@H]1C[C@H]1C(=O)O showed a pKa [1] of 10, a pKa [2] of 4.3 and a pKa [4] of 2.1.
Compound COC[C@@H]1[C@H](C(=O)O)[C@H]1[C@H](N)C(=O)O has a pKa [1] of 9.7, a pKa [2] of 4 and a Relative potency [3] of 0.1. The pKa [4] was 2.1.
In the case of COC[C@H]1[C@H](C(=O)O)[C@@H]1[C@H](N)C(=O)O, the pKa [1] is reported as 9.6, the pKa [2] is reported as 4.7 and the Relative potency [3] is reported as 50. The pKa [4] was 2.2.
With N[C@H](C(=O)O)[C@@H]1C[C@@H]1C(=O)O the pKa [1] was 10, the pKa [2] was 4.6 and the Relative potency [3] was 100. The pKa [4] was 2.5.
In the case of N[C@@H](CCC(=O)O)C(=O)O [GLUTAMIC ACID], the pKa [1] is reported as 9.7 and the Relative potency [3] is reported as 1.
